Data: patent publication US20220213030A1, “AMINOGUANIDINE HYDRAZONES AS RETROMER STABILIZERS USEFUL FOR TREATING NEUROLOGICAL DISEASES” (OSPEDALE SAN RAFFAELE SRL, priority 2019, published 2022)

Tests used:
Sortilin = Sortilin MFI in MNs of G93A mice; format: in vivo, mouse; conditions: 10 mg/kg, day 100
Excerpt: We next assayed retromer proteins labelling sections of mice sacrificed at day 100 for VPS35 and NeuN. […] Similarly, we observed that VPS26 levels were increased in G93A mice receiving compound 2a (FIG. 11B). We further corroborated our experimental finding observing that compound 2a increased retromer functionality. The cation-independent mannose 6-phosphate receptor (CI-MPR) is a cargo (Arighi et al., 2004) of the retromer complex that is unstable in VPS26 knockout cells (Seaman 2004). We observed a substantial reduction of CI-MPR MFI levels in MNs of vehicle-treated G93A mice when compared with WT litters (FIG. 11C). […]
Fluorescence intensity levels of VPS35, VPS26, Sortilin, CTSD and Ubiquitin were calculated using NHI-Image J software (US National Institutes of Health) according to the following protocol: stacks of confocal images were used to generate the maximal projections (Las-X) and then post-processed by NHI-Image J to crop single NeuN^+ MNs from the ventral horn of the spinal cord. We next performed background (calculated on adjacent slices only receiving secondary antibodies) subtraction for each channel, before applying the NHI-Image J mean filter (with radius 2.0 pixels) to calculate mean NeuN fluorescence levels in individual MN. […] On this selected ROI, we calculated mean fluoresce levels (MFI) of each protein.

[1] = system: Golgi apparatus in Neuro2a cells receiving G93A plasmids; assay: Golgi morphology (Golgin97) in Neuro2a cells receiving G93A plasmids; format: cell-based, mouse; conditions: 10 μM, 48 hours, G93A-transfected Neuro2a
Excerpt: Pathological alteration of the Golgi apparatus, such as its fragmentation, has been described in many neurodegenerative disorders including ALS. Neuro2a cells transfected with plasmids encoding the G93A mutant form of the SOD1 show alteration of the Golgi transport (Soo, Halloran et al. 2015). Along the same lines, Golgi fragmentation precedes neuromuscular denervation and axon retraction in ALS mice (van Dis, Kuijpers et al. 2014). We transfected Neuro2a cells with plasmids encoding the G93A mutant form of the human SOD1 gene (hereafter G93A) in presence or in absence of compound 2a (10 μM). Cells were harvested after 48 hours, labelled for Golgin-97 and scored for the distribution of trans-Golgi. […] Of note, the fragmentation of Golgi in cells receiving G93A plasmids was not depending on Golgin97 expression levels (FIG. 3A). We speculated that Golgi fragmentation may exacerbate cell death in this cell line. Therefore, we assayed cell survival of Neuro2a transfected with G93A plasmids. Accordingly, cells were transfected with G93A plasmids or with a control plasmid encoding the LacZ. […]
Golgi morphology was assessed in control or in Neuro2a cells receiving G93A plasmids with or without compound 2a (10 μM) according to published methods (Stafa 2012). […] Golgi subclasses were expressed as a percent of the total number of Golgi scored for each experimental condition.

SMILES: N=C(N)NN=Cc1cccc(C=NNC(=N)N)c1 [Compound 2a, 1,3-Bis-amino guanidine phenyl hydrazone]
- Sortilin MFI levels (Sortilin): significantly increased Sortilin levels
- percentages of cells showing partial or complete fragmentation of the Golgi complex [1]: significantly diminished these percentages
